“And” between values parts separate entries of the source, which are not always exact repeats. Equal entries are not always repeated. Marks after values point to notes of the source that are not given here.
How the values were obtained:
[1] = subcutaneous, doses smaller than 1 mg/kg/day, cited from earlier work
[2] = test system: MCF-7 (human breast adenocarcinoma); test: Clonogenic survival (surviving fraction) of MCF-7 cells after radiation or chemotherapeutic agent; assay type: cell-based
Protocol: (§1) MCF-7 (human breast adenocarcinoma), LoVo (human colon adenocarcinoma) and LNCaP (human prostate carcinoma) were obtained from the American Type Culture Collection. Cells were maintained as described in Paglin et al., 1997, Biochem. Biophs. Res. Comm. 237:678-684). Irradiation was carried out 48 hours post-plating (T0) at room temperature using a Cs-137 irradiator (Sheperd Mark-I, model 68, SN643) at a dose rate of 2.43-2.32 Gy/min. Bovine aortic endothelial cells were grown and treated with H2O2 as described in Haimovitz-Friedman et al., 1994, J. Exp. Med. 180:525-535 and Verhij et al., 1996, Nature 380:75-79. Phorbol 12-myristate 13-acetate (PMA; Alexis Biochemicals Corp., San Diego, Calif.) was dissolved in dimethyl sulfoxide (DMSO) and added to cells for the duration of one hour. The final DMSO concentration was 0.03%. The cells were then rinsed with warm growth medium before being returned to the incubator for an additional 48 hours.
(§2) Cells were plated in growth medium at a density of 30-90 cells per square centimeter and irradiated 22 hours later. Each experimental condition was done in quintet or triplicate. Cells were irradiated at room temperature in Cs-137 Irradiator (Sheperd Mark-I, Model 68, SN 643) at a rate of 2.43-2.32 Gy/min. […] For determination of their red to green ratio, colonies were processed as described above. For determination of surviving fractions cells were stained with crystal violet and colonies containing 50 cells or more were counted with a dissecting microscope. The surviving fraction was defined as the ratio between the plating efficiencies of irradiated and non-irradiated cells and was calculated at each dose level according to Hall and Phill (1994, […] for the Radiologist, 4th Edition, J. Lippincott Co., Philadelphia).

Capan-1 xenograft tumor = conditions: subcutaneous, doses smaller than 1 mg/kg/day; cited from earlier work
[3] = test system: LoVo (human colon adenocarcinoma); test: Clonogenic survival (surviving fraction) of LoVo cells after radiation or chemotherapeutic agent; assay type: cell-based
Protocol: as §1, §2

[4] = test system: MCF-7 (human breast adenocarcinoma); test: Clonogenic survival (surviving fraction) of MCF-7 cells after radiation or chemotherapeutic agent; assay type: cell-based; remark: listed apart in the source
[5] = Bafilomycin A1 8 nM, no radiation

bafilomycin A1
histological examination of organs ([1]; four weeks treatment): did not affect the liver, pancreas, small intestine, kidney or lung | growth of nude mice ([1]; up to four weeks, Ohta et al., 1998): did not affect the growth | reduction of survival of irradiated cells ([2]; 2 nM bafilomycin A1, 300 cGy, two separate experiments): 45% and 32% | Surviving fraction in the presence of Baf A1 (2nM) ([2]; Baf A1 2nM added at irradiation for 24 hours, 2 Gy): 0.51 ± 0.07 | Surviving fraction in the presence of Baf A1 (2nM) ([2]; Baf A1 2nM added at irradiation for 24 hours, 3 Gy): 0.23 ± 0.05 | Surviving fraction in the presence of Baf A1 (2nM) ([2]; Baf A1 2nM for 24 hours, 0 Gy, listed as Baf A1): 0.9 ± 0.14 | Surviving fraction in the presence of Baf A1 (2nM) ([2]; Baf A1 2nM for 24 hours, 0 Gy, listed as bafilomycin A1): without significantly affecting | Normalized Surviving Fraction ([2]; Bafilomycin A1 8 nM, 2 Gy): 0.47 | Plating Efficiency ([2]; Bafilomycin A1 8 nM, 2 Gy): 43 ± 7.7 | Surviving Fraction ([2]; Bafilomycin A1 8 nM, 2 Gy): 0.26 | Normalized Surviving Fraction ([2]; Bafilomycin A1 8 nM, 4 Gy): 0.11 | Plating Efficiency ([2]; Bafilomycin A1 8 nM, 4 Gy): 21 ± 3.4 | Surviving Fraction ([2]; Bafilomycin A1 8 nM, 4 Gy): 0.06 | Normalized Surviving Fraction ([2]; Bafilomycin A1 8 nM, 6 Gy): 0.23 | Plating Efficiency ([2]; Bafilomycin A1 8 nM, 6 Gy): 7 ± 3 | Surviving Fraction ([2]; Bafilomycin A1 8 nM, 6 Gy): 0.01 | Normalized Surviving Fraction [2, 5]: 1 | Plating Efficiency [2, 5]: 98 ± 12 | Surviving Fraction [2, 5]: 0.59 | decrease of survival ([2]; MCF-7, 2 nM bafilomycin, 100 nM adriamycin): 34% | Surviving Fraction ([2]; Table 4, 2 nM bafilomycin A1, 2 Gy): 0.51 ± 0.07 | Surviving Fraction ([2]; Table 4, 2 nM bafilomycin A1, 4 Gy): 0.17 ± 0.02 | Surviving Fraction ([2]; Table 4, 2 nM bafilomycin A1, 6 Gy): 0.02 ± 0.003 | decrease of survival following irradiation ([2]; Table 4, 2 nM bafilomycin A1, 200 cGy): 27% | decrease of survival following irradiation ([2]; Table 4, 2 nM bafilomycin A1, 400 cGy): 37% | decrease of cell survival following irradiation ([2]; Table 5, 2 nM bafilomycin A1, 200 cGy): 19% | decrease of cell survival following irradiation ([2]; Table 5, 2 nM bafilomycin A1, 400 cGy): 13% | Surviving Fraction ([2]; Table 5, 2 nM bafilomycin A1, Radiation Dose (cGy) 0): 1 ± 0.07 | Surviving Fraction ([2]; Table 5, 2 nM bafilomycin A1, Radiation Dose (cGy) 2): 0.57 ± 0.04 | Surviving Fraction ([2]; Table 5, 2 nM bafilomycin A1, Radiation Dose (cGy) 4): 0.27 ± 0.01 | Surviving Fraction ([2]; Table 5, 2 nM bafilomycin A1, Radiation Dose (cGy) 6): 0.05 ± 0.01 | reduction of survival ([2]; Table 6, 2 nM bafilomycin, 3 Gy): 37% | Surviving Fraction ([2]; Table 6, 2 nM bafilomycin, X radiated 3 Gy): 0.28 ± 0.03 | Surviving Fraction ([2]; Table 6, 4 nM bafilomycin, C non-irradiated control): 0.7 ± 0.03 | Surviving Fraction ([2]; Table 6, 4 nM bafilomycin, X radiated 3 Gy): 0.2 ± 0.03 | Surviving Fraction ([2]; Table 6, 8 nM bafilomycin, C non-irradiated control): 0.66 ± 0.05 | Surviving Fraction ([2]; Table 6, 8 nM bafilomycin, X radiated 3 Gy): 0.14 ± 0.02 | Surviving Fraction ([2]; Table 6, 16 nM bafilomycin, C non-irradiated control): 0.52 ± 0.05 | Surviving Fraction ([2]; Table 6, 16 nM bafilomycin, X radiated 3 Gy): 0.12 ± 0.03 | Surviving Fraction ([2]; Table 7, 2 nM bafilomycin A1, C non-irradiated): does not significantly affect | Surviving Fraction ([2]; Table 7, 2 nM bafilomycin A1, C non-irradiated, listed as bafilomycin Al): 0.92 ± 0.06 | Surviving Fraction ([2]; Table 7, 2 nM bafilomycin A1, X radiated 3 Gy): 0.22 ± 0.04 | reduction of cell survival ([2]; Table 7, 2 nM bafilomycin, 300 cGy): 49% | Surviving Fraction ([2]; Table 7, 4 nM bafilomycin A1, C non-irradiated): 0.79 ± 0.04 | Surviving Fraction ([2]; Table 7, 4 nM bafilomycin A1, X radiated 3 Gy): 0.16 ± 0.04 | Surviving Fraction ([2]; Table 7, 8 nM bafilomycin A1, C non-irradiated): 0.60 ± 0.08 | Surviving Fraction ([2]; Table 7, 8 nM bafilomycin A1, X radiated 3 Gy): 0.12 ± 0.02 | Surviving Fraction ([2]; Table 7, 16 nM bafilomycin A1, C non-irradiated): 0.35 ± 0.05 | Surviving Fraction ([2]; Table 7, 16 nM bafilomycin A1, X radiated 3 Gy): 0.09 ± 0.04 | survival (head of column empty) ([2]; Table 15, MCF-7, Bafilomycin 2 nM alone): 0.95 ± 0.1 | survival, column Adriamycin ([2]; Table 15, MCF-7, Bafilomycin 4 nM + 100 nM adriamycin): 0.35 ± 0.05 | survival (head of column empty) ([2]; Table 15, MCF-7, Bafilomycin 4 nM alone): 0.61 ± 0.05 | cell survival, Bafilomycin A1 (2 nM) ([2]; Table 18, MCF-7, Bafilomycin A1 2 nM + Etoposide 0.05 μg/ml): 0.36 ± 0.08 | reduction of the surviving fraction ([2]; bafilomycin A1 for 24 hours following irradiation with 2 and 3 Gy): 30%-40% | effect on Capan-1 xenograft tumor (Capan-1 xenograft tumor): apoptotic death of Capan-1 cells in their xenograft tumor and overall shrinkage of the tumors | decrease of survival of cells exposed to Adriamycin ([3]; 2 nM bafilomycin, 100 nM Adriamycin): 22% | decrease of survival ([3]; 2 nM bafilomycin, 3 Gy, Table 11 and Table 12): 43% and 24% | decrease of resistance to Adriamycin ([3]; 2 nM bafilomycin, Adriamycin 100 nM, 48 hours): 35% | decrease of survival ([3]; 2 nm bafilomycin A1, 2 Gy): 25% | decrease of survival ([3]; 2 nm bafilomycin A1, 3 Gy): 30% | Surviving Fraction 0 Gy ([3]; Table 11, Bafilomycin A1 2 nM): 1.14 ± 0.09 | Surviving Fraction 3 Gy ([3]; Table 11, Bafilomycin A1 2 nM, 3 Gy): 0.24 ± 0.08 | Surviving Fraction 0 Gy ([3]; Table 11, Bafilomycin A1 4 nM): 1.01 ± 0.03 | Surviving Fraction 3 Gy ([3]; Table 11, Bafilomycin A1 4 nM, 3 Gy): 0.23 ± 0.02 | Surviving Fraction 0 Gy ([3]; Table 11, Bafilomycin A1 8 nM): 0.84 ± 0.12 | Surviving Fraction 3 Gy ([3]; Table 11, Bafilomycin A1 8 nM, 3 Gy): 0.19 ± 0.04 | Surviving Fraction 0 Gy ([3]; Table 12, Bafilomycin 2 nM): 0.92 ± 0.05 | Surviving Fraction 3 Gy ([3]; Table 12, Bafilomycin 2 nM, 3 Gy): 0.16 ± 0.01 | Surviving Fraction 0 Gy ([3]; Table 12, Bafilomycin 4 nM): 0.84 ± 0.03 | Surviving Fraction 3 Gy ([3]; Table 12, Bafilomycin 4 nM, 3 Gy): 0.08 ± 0.02 | Surviving Fraction 2 nM Bafilomycin ([3]; Table 13, 2 nM Bafilomycin, Dose 0 Gy): 0.78 ± 0.05 | Surviving Fraction 2 nM Bafilomycin ([3]; Table 13, 2 nM Bafilomycin, Dose 2 Gy): 0.24 ± 0.03 | Surviving Fraction 2 nM Bafilomycin ([3]; Table 13, 2 nM Bafilomycin, Dose 3 Gy): 0.11 ± 0.03 | Surviving Fraction 2 nM Bafilomycin ([3]; Table 14, 2 nM Bafilomycin + Adriamycin 50 nM): 0.73 ± 0.08 | Surviving Fraction 2 nM Bafilomycin ([3]; Table 14, 2 nM Bafilomycin + Adriamycin 100 nM): 0.60 ± 0.05 | Surviving Fraction 2 nM Bafilomycin ([3]; Table 14, 2 nM Bafilomycin + Adriamycin 150 nM): 0.38 ± 0.03 | Surviving Fraction 2 nM Bafilomycin ([3]; Table 14, 2 nM Bafilomycin, Adriamycin 0 nM): 0.93 ± 0.05 | survival, Adriamycin 100 nM ([3]; Table 17, Bafilomycin A1 2 nM + Adriamycin 100 nM, 48 hours): 0.65 ± 0.05 | survival (head of column empty) ([3]; Table 17, Bafilomycin A1 2 nM alone, 48 hours): 0.86 ± 0.04 | survival, Adriamycin 100 nM ([3]; Table 17, Bafilomycin A1 4 nM + Adriamycin 100 nM, 48 hours): 0.4 ± 0.01 | survival (head of column empty) ([3]; Table 17, Bafilomycin A1 4 nM alone, 48 hours): 0.61 ± 0.04 | cell survival, Bafilomycin (2 nM) ([3]; Table 19, Bafilomycin 2 nM + Etoposide 0.05 μg/ml): 0.59 ± 0.08 | cell survival, Bafilomycin (2 nM) ([3]; Table 19, Bafilomycin 2 nM, Etoposide 0 μg/ml): 1.16 ± 0.07 | decrease of survival in the presence of etoposide ([3]; bafilomycin 2 nM, etoposide 0.05 μg/ml): 25% | survival, column Adriamycin ([4]; Table 15, Bafilomycin 2 nM + 100 nM adriamycin, average of two plates): (0.56; 0.58)0.57* | cell survival, Bafilomycin A1 (2 nM) ([4]; Table 18, Bafilomycin A1 2 nM, Etoposide 0 μg/ml): 0.9 ± 0.09 | decrease of survival in the presence of etoposide ([4]; bafilomycin 2 nM, etoposide 0.05 μg/ml, Table 18): 54%

From patent US6982252B2, “Inhibition of vacuolar proton ATPase activity and/or the modulation of acidic organelle function sensitizes cells to radiation, chemotherapy and biological agents” (Memorial Sloan-Kettering Cancer Center, priority 2000, dated 2006)
